We go through twelve compounds from patent US20260144879A1, “ANTI-VIRAL AND HEPATIC-TARGETED DRUGS” (AI-BIOPHARMA, priority 2019, published 2026).

For assay [1], the system named is HBV (genotype D, serotype ayw, Galibert's strain). Nature of the assay: Quantification of virion associated secreted HBV DNA in supernatant of HBV-infected differentiated HepaRG (dHepaRG) cells by qPCR, % of replication vs DMSO. The assay is classed as cell-based, hepatitis B virus. Particulars: 1 μM compound, 7 days treatment, DMSO = 100%; for activity at 1 µM: Hepatitis B virus, HepaRG, 168 h, read-out: dHepaRG HBV % of replication at 1 μM compared to DMSO. As for the experimental part:
(§1) From Methods in Lucifora J. et al. (Direct antiviral properties of TLR ligands against HBV replication in immune-competent hepatocytes, Science Scientific Reports, 2018, 8:5390): • 1) HepaRG cells were cultured, as described previously by Gripon P. et al. (Infection of a human hepatoma cell line by hepatitis B virus. Proc Natl Acad Sci USA, 2002, 99, p 15655-15660) on pages 15655 and 15656, in Williams E medium supplemented with 10% fetal calf serum, 50 U penicillin/streptomycin (Gibco-Invitrogen) ml^−1, […] ml^−1 and 5×10^−7 M hydrocortisone hemisuccinate (Roche Diagnostics and Boehringer Mannheim, respectively). The cell cultures were maintained in a 5% CO2 atmosphere at 37° C. During the proliferation phase, culture medium was renewed every 2 days. For differentiation and infection, cells were maintained for 2 weeks in standard medium and then for at least 2 more weeks in medium supplemented with 1.8-2.0% DMSO (Sigma). • 2) Primary Human Hepatocytes (PHH) were freshly prepared from human liver resection as previously described by Lecluyse, E. L. & Alexandre, E. (Isolation and culture of primary hepatocytes from resected human liver tissue. Methods Mol Biol, 2010, 640, p 57-82, https://doi.org/10.1007/978-1-60761-688-7_3) on page 63 paragraph 3. “Methods” from section 3.1. through 3.6.2. page 77. All experimental procedures were conducted in conformity with French laws and regulations and were approved by the National Ethics Committee. • 3) Cell viability was measured by both neutral red and MTS (CellTiter 96 Aqueous One Solution cell proliferation assay; Promega) tests. • 4) HBV inoculum (genotype D, serotype ayw, Galibert's strain referred as NC_003977.2 at NCBI) was prepared from HepAD38 (see Ladner, S. K. et al., Inducible expression of human hepatitis B virus (HBV) in stably transfected hepatoblastoma cells: a novel system for screening potential inhibitors of HBV replication. Antimicrob Agents Chemother, 1997, 41, p 1715-1720) supernatants by polyethylene-glycol-MW-8000 (PEG8000, SIGMA) precipitation (8% final) as previously described by Luangsay, S. et al. (Early inhibition of hepatocyte innate responses by hepatitis B virus. J Hepatol, 2015, 63, p 1314-1322, https://doi.org/10.1016/j.jhep.2015.07.014).
(§2) Viral stocks with titer reaching at least 1×10^10 viral genome equivalent (vge)/mL were tested endotoxin free.
(§3) Differentiated HepaRG (dHepaRG) or PHH were infected by HBV at a multiplicity of infection of 100-200 vge/cell in culture medium containing 4% PEG 8000 (Sigma) for 16 h at 37° C. in 12- or six-well plates. At the end of the incubation period, cells were washed once with medium and then cultured in Williams E medium containing DMSO as indicated. In general infection was left for 7 days before any treatment was started, to allow replication reaching its maximum. • 5) Infected cell treatment with compounds of interest: • 5a: After 7 days of infection with the virus (day 0 to day 7), the dHepaRG cells were treated (3 treatments: day 7, day 10 and day 12) with a […] of the tested compound (diluted with sterile water from a 10 mM stock DMSO solution) or DMSO as reference negative control for 7 more days. • 5b: After 4 days of infection with the virus (day 0 to day 4), the PHH cells were treated (3 treatments: day 4, day 7 and day 9) with a […] of the tested compound (diluted with sterile water from a 10 mM stock DMSO solution) for 7 more days. • 6) Quantification of virion associated secreted HBV DNA in cell culture supernatant:
(§4) At the end of the experiment (7 days treatment) the supernatant of infected and treated cells (either dHepaRG or PHH or others) is collected. It is diluted 1/4 into sterile water (molecular biology quality) then treated for 30 minutes with RNAse (10 unit) and DNAse (10 unit) to remove non encapsidated material. […]
(In general: Quantitative PCR measures a nucleic acid by following its amplification.)

For assay [2] the test system is unchanged. Nature of the assay: Quantification of virion associated secreted HBV DNA in supernatant of HBV-infected Primary Human Hepatocytes (PHH) by qPCR, % of replication vs DMSO. The assay is classed as cell-based, hepatitis B virus. Conditions: 1 μM compound, 7 days treatment, DMSO = 100%; for activity at 1 µM: Hepatitis B virus, Hepatocyte, 168 h, (*) n = 1, read-out: PHH HBV % of replication at 1 μM compared to DMSO. The method, then: as §1, §2, §3, §4

In the case of `CC(C)OC(=O)CC1COP(=O)(CO[C@H](C)Cn2cnc3c(N)ncnc32)OC1` (single isomer, unassigned) [Example 3a], the activity at 1 µM in assay [1] and in assay [2] was not above 30% in each case.

As to `Nc1ncnc2c1ncn2CCOCP(=O)(O)O` [ADF], the “dHepaRG HBV % of replication at 1 μM compared to DMSO” value in assay [1] is given as “++ (50% < ++ ≤ 80%)”. Moreover, in assay [2] ((*) n = 1), the “PHH HBV % of replication at 1 μM compared to DMSO” value is on record as “++ (50% < ++ ≤ 80%)”.

As for `COC(=O)CC1COP(=O)(CO[C@H](C)Cn2cnc3c(N)ncnc32)OC1` (stereo partly drawn) [Example 1, (R)-methyl 2-(2-(((1-(6-amino-9H-purin-9-yl)propan-2-yl)oxy)methyl)-2-oxo-1,3,2-dioxaphosphinan-5-yl)acetate], the activity at 1 µM in assay [1] and in assay [2] was not above 30% each time.

Turning to `CCOC(=O)CC1COP(=O)(CO[C@H](C)Cn2cnc3c(N)ncnc32)OC1` (stereo partly drawn) [Example 2, (R)-ethyl 2-(2-(((1-(6-amino-9H-purin-9-yl)propan-2-yl)oxy)methyl)-2-oxo-1,3,2-dioxaphosphinan-5-yl)acetate], the activity at 1 µM in assay [1] and in assay [2] was not above 30% throughout.

As to `C[C@H](Cn1cnc2c(N)ncnc21)OCP1(=O)OCC(CC(=O)OC2CCCC2)CO1` (stereo partly drawn) [Example 5, (R)-cyclopentyl 2-(2-(((1-(6-amino-9H-purin-9-yl)propan-2-yl)oxy)methyl)-2-oxo-1,3,2-dioxaphosphinan-5-yl)acetate], the activity at 1 µM in assay [1] and in assay [2] was not above 30% each time.

Regarding `CCCCCCOC(=O)CC1COP(=O)(CO[C@H](C)Cn2cnc3c(N)ncnc32)OC1` (stereo partly drawn) [Example 5b, (R)-hexyl 2-(2-(((1-(6-amino-9H-purin-9-yl)propan-2-yl)oxy)methyl)-2-oxo-1,3,2-dioxaphosphinan-5-yl)acetate], the activity at 1 µM in assay [1] was 30 to 50%; in assay [2], not above 30%.

As to `CC1COP(=O)(CO[C@H](C)Cn2cnc3c(N)ncnc32)OC1` (stereo partly drawn) [Example 5c, (R)-2-(((1-(6-amino-9H-purin-9-yl)propan-2-yl)oxy)methyl)-5-methyl-1,3,2-dioxaphosphinane 2-oxide], the activity at 1 µM in assay [1] is more than 80%; in assay [2] it was 30 to 50%.

For `COC(=O)CCC1COP(=O)(CO[C@H](C)Cn2cnc3c(N)ncnc32)OC1` (stereo partly drawn) [Example 6, (R)-methyl 3-(2-(((1-(6-amino-9H-purin-9-yl)propan-2-yl)oxy)methyl)-2-oxido-1,3,2-dioxaphosphinan-5-yl)propanoate], the values for the activity at 1 µM in assay [1] and in assay [2] were 50 to 80% and more than 80%, respectively.

For `CCOC(=O)CCC1COP(=O)(CO[C@H](C)Cn2cnc3c(N)ncnc32)OC1` (stereo partly drawn) [Example 7, (R)-ethyl 3-(2-(((1-(6-amino-9H-purin-9-yl)propan-2-yl)oxy)methyl)-2-oxo-1,3,2-dioxaphosphinan-5-yl)propanoate], the activity at 1 µM in assay [1] and in assay [2] was 50 to 80% throughout.

For the compound `CC(C)OC(=O)CCC1COP(=O)(CO[C@H](C)Cn2cnc3c(N)ncnc32)OC1` (stereo partly drawn) [Example 8, (R)-isopropyl 3-(2-(((1-(6-amino-9H-purin-9-yl)propan-2-yl)oxy)methyl)-2-oxo-1,3,2-dioxaphosphinan-5-yl)propanoate], the activity at 1 µM in assay [1] and in assay [2] was 50 to 80% each time.

As to `C[C@H](Cn1cnc2c(N)ncnc21)OCP1(=O)OCC(CCC(=O)OC2CCCC2)CO1` (stereo partly drawn) [Example 10, (R)-cyclopentyl 3-(2-(((1-(6-amino-9H-purin-9-yl)propan-2-yl)oxy)methyl)-2-oxo-1,3,2-dioxaphosphinan-5-yl)propanoate], the activity at 1 µM in assay [1] was 50 to 80%; in assay [2], not above 30%.

For the compound `CCOC(=O)CC1COP(=O)(CO[C@H](C)Cn2cnc3c(NC(C)=O)ncnc32)OC1` (stereo partly drawn) [Example 13, (R)-ethyl 2-(2-(((1-(6-acetamido-9H-purin-9-yl)propan-2-yl)oxy)methyl)-2-oxo-1,3,2-dioxaphosphinan-5-yl)acetate], the values for the activity at 1 µM in assay [1] and in assay [2] were 50 to 80% and not above 30%, respectively.
